In patent US20210046002A1, “AMELIORATION OF AUTOIMMUNE UVEITIS THROUGH BLOCKADE OF CSF1R” (Massachusetts Eye and Ear Infirmary, priority 2018, published 2021):
“Also recorded” adds a separate entry of the source. One block for each compound: values may come before it.

Key:
EAU [1] = test: Adoptive transfer EAU; format: in vivo, mice
Method: Adoptive transfer EAU was induced as previously described with brief modification. Briefly, donor mice were immunized as described above and the spleens and draining lymph nodes (LNs) were collected on day 14 post-immunization. Lymphocytes from spleens and draining LNs were culture in the presence of 10 μg/ml IRBP-p and 10 ng/ml IL-23 (R&D systems, Minneapolis, Minn.) for 72 hours in RPMI 1640 supplemented with 10% FBS (Gibco), 2 mM glutamine (Gibco), and 100 U/ml penicillin and 100 μg/ml streptomycin. The non-adherent cells in the entire suspension were transferred to new dishes on day one and two of culture. After 3 days, the activated lymphocytes were purified by gradient centrifugation on Histopaque 1083 and counted. The cells were injected i.p. in 0.2 ml of PBS into […] (5×10^7 cells/mouse). Fundus were observed using Micron IV (Phoenix, Pleasanton, Calif.) and clinical score was graded on a scale between 0-4 in half-point increments as described previously. For histological assessment, enucleated eyes were fixed in a buffer of 70% methanol and 30% acetic acid. The fixed tissues were embedded in paraffin and processed. Sections of 5 μm were cut and stained with H&E. The severity of EAU in each eye was scored on a scale between 0-4 in half-point increments, according to a semiquantitative system described previously.

[2] = test system: lymph node and spleen cells; test: Lymphocyte proliferation assay (modified MTT) of lymph node and spleen cells; format: cell-based, C57BL/6 mice; settings: IRBP-immunized animals, lymph nodes and spleens, day 14 and 21
Method: The draining LN and spleens were collected and the cells were suspended at 2×10^5 per 200 μL medium in 96-well flat-bottom plates. Triplicated cells were cultured in the presence of 10 μg/mL IRBP-p, 1 μg/mL Concanavalin A (Con A; Sigma-Aldrich), or medium alone. After incubation for three days, 100 μl of supernatant in the culture medium was collected. Cell proliferation during the last 4 hours of 72 hours cultures was measured by modified MTT assay using Cell Counting Kit-8 (Sigma-Aldrich).

[3] = test system: adherent retinal leukocytes; test: Lectin labeling of adherent retinal leukocytes; format: in vivo, mice; settings: EAU day 10
Method: The retinal vasculature and adherent leukocytes were imaged by perfusion labeling with fluorescein-isothiocyanate (FITC)-conjugated concanavalin A lectin (conA; Vector Laboratories, Burlingame, Calif.), as described previously with modifications. Briefly, after deep anesthesia, the chest cavity was opened and a 27-gauge cannula was introduced into the left ventricle. The mice were perfused through the left ventricle first using 5 ml of PBS, followed by fixation with 1% paraformaldehyde (5 ml), FITC-conjugated conA (20 μg/ml in PBS, 5 mL), and 5 ml of PBS. The eyes were then fixed in 4% PFA for 15 mins and the retinas were flatmounted. The total number of conA stained adherent leukocytes in the major retinal vessels (venules, arterioles, and collecting vessels) were counted under the direct observation with an epifluorescent microscopy (Axio Observer Z1; Carl Zeiss, Bayern, Germany).

LN cells and SP cells = test: Flow cytometric analysis of lymph nodes and spleens; format: in vivo, mice
Source text: Cervical, axillary, and inguinal lymph nodes (LNs) were harvested from naive mice and EAU mice fed with a small molecule CSFR1 inhibitor or control diet. Single cell suspensions (1×10^6 cells/sample) were blocked with anti-mouse CD16/32 mAb (eBioscience, San Diego, Calif.) and stained with cell surface antibodies. Dead cells were stained with LIVE/DEAD™ fixable dead cell stain kit (blue or violet) (ThermoFisher). The following anti-mouse antibodies were used for staining: CD4-FITC (clone: GK1.5), CD25-PE (PC61.5), Foxp3-PE-Cy7 (FJK-6s), CD11c-FITC (N418), CD11b-PE (M1/70), CD45-APC (30-F11), IFN-γ-PE (XMG1.2), and IL-17A-APC (eBio17B7) (All purchased from eBioscience). CD3-Pacific blue (17A2) was purchase from BioLegend (San Diego, Calif.). For CD45/CD11b/CD11c detection, the cells were subjected for analysis without fixation. For regulatory T cell (CD3/CD4/CD25/Foxp3) staining, after staining with the cell surface markers, the cells were fixed and permeabilized with the Foxp3 staining buffer kit (eBioscience) and stained with Foxp3-PE-Cy7. For Th1 and Th17 detection (CD3/CD4/IFN-γ/IL-17), single cell suspensions were stimulated for 4 hours with 50 ng/mL phorbal myristate acetate (PMA) and 500 ng/ml ionomysin in culture media (10% FBS, RPMI1640, penicillin, streptomycin, β-mercaptoethanol) in the presence of GolgiPlug™ (BD Biosciences). The cells were stained with CD3-PB, CD4-FITC, and Live/Dead blue then fixed and permeabilized using an intracellular fixation and permeabilization buffer set (eBioscience). The cells were next stained with IFN-γ-PE and IL-17-APC. Flow cytometric data were acquired on a LSR II (BD Biosciences). Acquired data was analyzed using FlowJo 10.1 ( ).

IRBP-p = test: Delayed hypersensitivity (ear swelling) against IRBP-p; format: in vivo, C57BL/6 mice; settings: IRBP-immunized animals, day 21
Method: Ag-specific delayed hypersensitivity (DH) was measure as previously described. On day 19 after immunization, mice were injected intradermally with 10 μg/10 μl of IRBP-p suspended in PBS into the pinna of one ear. Ear swelling was measured after 24 and 48 h using a micrometer (Mitutoyo, Tokyo, Japan). DH was measured as the difference in ear thickness before and after challenge. Results were expressed as: specific ear swelling=(24-h measurement−0-h measurement) for test ear−(24-h measurement−0-h measurement) for control ear.

[4] = Lymph node and spleen weight in EAU; format: in vivo, C57BL/6 mice; settings: day 21
retinal microglia = test: Retinal microglia depletion by chow containing CSF1R inhibitor; format: in vivo; settings: inhibitor-treated mice
Source text: The images of whole mount retinas were taken by a confocal microscopy (SP5 or SP8; Leica, Buffalo Grove, Ill., USA) or an epifluorescent microscopy (Axio Observer Z1; Carl Zeiss, Bayern, Germany). For microglial cell number counting, microglial cell bodies were manually counted based on the z-stack images. For microglial density evaluation, maximum intensity z-stack images were created and the images were processed with the smooth, the make binary, and the watershed tools. The area of particles was then calculated using the analyze particles tool, setting the size range to 5-1000. Amira 5 software (FEI, Hillsboro, Oreg., USA) was used to make 3D-reconstruction images.
Microglia depletion was performed using Cx3cr1^CreER×B6-iDTR (TG) mice or chow containing a small molecule CSFR1 inhibitor (Plexxikon Inc, Berkely, Calif., USA). To generate TG mice, Cx3cr1^CreER mice, which express Cre-ER fusion protein from endogenous CX3CR1 promoter enhance elements, were crossed with B6-iDTR mice, which contain a flox-STOP-flox diphtheria toxin receptor (DTR) in the ROSA26 locus. In this TG mice system, the Cre recombinase activation under the control of the Cx3cr1 promoter can be induced by tamoxifen, which leads to the surface expression of DTR on CX3CR1-expressing cells. […]

EAU [5] = test: Active immunization EAU, clinical and histopathological score; format: in vivo, C57BL/6 mice
[6] = test system: circulating systemic immune cells; settings: previous studies [31, 32]; cited from earlier work
ICAM-1 = test: Western blot of retinal ICAM-1; format: in vivo, mice; settings: EAU day 10; P<0.01
Method: (§1) Whole retinas were homogenized with a hand homogenizer and briefly sonicated in M-PER® Mammalian Protein Extract Reagent containing Halt Phosphatase Inhibitor Cocktail (both Thermo Scientific), and then ultracentifuged for 15 min at 17,000 g to collect soluble proteins as supernatants. 20 μg of the samples were electrophoresed through 4-15% polyacrylamide gels (Bio-Rad, Hercules, Calif., USA), and transferred onto PVDF membranes. After blocking with 5% nonfat dried milk, the membranes were incubated overnight with a primary antibody at 4° C. The membranes were then incubated for 1 hour at room temperature with a HRP-labeled secondary antibody. The following antibodies were used: rabbit anti-ICAM1 (179707, abcam), rabbit anti-VCAM1 (134047, abcam), and rabbit anti-β-actin (4970; Cell Signaling Technology). Immunoreactive bands were visualized by ECL. The images were taken by ChemiDoc MP (Bio-Rad) and analyzed using Image Lab 4.6 (Bio-Rad).

VCAM-1 = test: Western blot of retinal VCAM-1; format: in vivo, mice; settings: EAU day 14
Method: as §1

[7] = Behavior and health observation on supplemented diet; format: in vivo, mice; settings: chow containing 1200 p.p.m
Method: Microglia depletion was performed using Cx3cr1^CreER×B6-iDTR (TG) mice or chow containing a small molecule CSFR1 inhibitor (Plexxikon Inc, Berkely, Calif., USA). To generate TG mice, Cx3cr1^CreER mice, which express Cre-ER fusion protein from endogenous CX3CR1 promoter enhance elements, were crossed with B6-iDTR mice, which contain a flox-STOP-flox diphtheria toxin receptor (DTR) in the ROSA26 locus. In this TG mice system, the Cre recombinase activation under the control of the Cx3cr1 promoter can be induced by tamoxifen, which leads to the surface expression of DTR on CX3CR1-expressing cells. The activation of Cre recombinase was induced by 5 consecutive days of tamoxifen administration via eye drops (10 μl/drop of 5 mg/ml in corn oil) three times a day at 6 weeks old. Then diphtheria toxin (DTX) (Sigma-Aldrich) was administered into the anterior chamber (a.c.) (25 ng in 1 μl of saline) to deplete CX3CR1-expressing. The control mice were given saline (a.c.). For microglia depletion using a small molecule CSFR1 inhibitor, mice were fed the control chow (AIN-76) or the chow containing 1200 p.p.m of the CSF1R inhibitor PLX 5622 one week prior to RD creation.

EAU [8] = test: EAU in Cx3cr1CreER x B6-iDTR mice given tamoxifen alone; format: in vivo; settings: day 21; for clinical EAU score: tamoxifen alone, systemically via i.p. injection

behavioral or health problems [7]: No obvious behavioral or health problems
SMILES: COc1ncc(F)cc1CNc1ccc(Cc2c[nH]c3ncc(C)cc23)c(F)n1 [a small molecule CSFR1 inhibitor]
severity of EAU in recipients (uveitogenicity of donor lymphocytes) (EAU [1]; inhibitor given to donor mice 7 days prior to EAU induction, recipients on regular diet): did not affect the severity of EAU; also recorded: does not significantly suppress
EAU response (clinical and histopathological score) (EAU [1]; inhibitor given to recipient mice 7 days prior to cell transfer): suppressed; also recorded: suppresses EAU
lymphocyte proliferation [2]: did not affect
levels of adherent cells vs naïve mice [3]: similar
number of adherent cells vs control EAU mice [3]: significantly fewer
frequency of CD3+CD4+ T cells positive for IFN-γ+ or IL-17+ (LN cells and SP cells; LNs and spleens, day 14): does not suppress; also recorded: did not significantly change
frequency of regulatory T cells (CD4+CD25+Foxp3+) (LN cells and SP cells; LNs and spleens, day 14): did not increase
CD11c+CD11b+ cells (LN cells and SP cells; both LNs and splenic cells, day 14 of EAU, vs control-fed): suppresses; also recorded: decreased
delayed hypersensitivity (DH) response, ear swelling (IRBP-p): did not affect
lymph node (LN) weight [4]: does not change; also recorded: neither parameter was affected
spleen weight [4]: does not change; also recorded: neither parameter was affected
degree of microglia depletion (retinal microglia): 100%
clinical EAU score (development of EAU) (EAU [5]; diet 1200 ppm started day -7, through day 21, p<0.001): suppresses EAU; also recorded: completely suppressed
clinical EAU score (EAU [5]; diet started day 0, until 28 days after EAU induction): effectively suppressed
clinical EAU score (EAU [5]; diet started day 7): partially suppressed
severity of EAU (clinical score) (EAU [5]; diet started day 14): comparable to that of control mice
animals developing EAU (EAU [5]; diet started day -7, by day 28, mild EAU, n=7): Only one animal
histological score (EAU [5]; diet started day -7, day 21, p<0.01): suppressed EAU induction
effect on circulating systemic immune cells [6]: minimal effect
retinal ICAM-1 protein expression vs naïve retina (ICAM-1): significantly higher
retinal VCAM-1 expression (VCAM-1): unaffected

SMILES: CC/C(=C(\c1ccccc1)c1ccc(OCCN(C)C)cc1)c1ccccc1 [tamoxifen]
clinical EAU score (EAU [8]): significantly suppressed
clinical EAU score (EAU [8]; listed as Tamoxifen): suppresses EAU
EAU severity (clinical EAU score) (EAU [8]; tamoxifen topical via eye drops): did not significantly affect
